# Assay results taken from publication PMC11489133, “Obicetrapib exhibits favorable physiochemical and pharmacokinetic properties compared to previous cholesteryl ester transfer protein inhibitors: An integrated summary of results from non‐human primate studies and clinical trials” (Pharmacology Research & Perspectives, 2024).
# Read-outs that look alike come from different tables or passages of the source.
# Key:
# [1] = TULIP Phase II trial, plasma concentrations of obicetrapib; assay type: in vivo, humans; settings: for % Change in Plasma Level: Week 20 vs EOT, mean (SD); for concentration at 12 weeks / concentration at 20 weeks: both sexes, human, plasma, oral, read-out: Mean (SD) Plasma Level; for concentration at 12 weeks: Week 12 (EOT)
# Experimental: (§1) The PK parameters and the effect of food on the bioavailability of obicetrapib in humans have been examined in both Phase I[9] (TA‐8995‐09 CSR, NewAmsterdam Pharma) and Phase II trials.[10], [11], [12], [13] The trials were performed in accordance with the Declaration of Helsinki, Good Clinical Practice Guidelines, and applicable regulatory requirements. Approval was obtained from the relevant ethical review boards for each site. All volunteers provided written informed consent prior to participation. PK parameters were determined using WinNonlin software, version 4.1 or higher (Pharsight/Certara Corporation, USA). Concentrations of obicetrapib were summarized for each treatment group using descriptive statistics.
# TULIP (NCT01970215) was a placebo‐controlled, double‐blind, randomized parallel‐group trial conducted to evaluate the effects of varying doses of obicetrapib as monotherapy and in combination with moderate‐intensity statin therapy on LDL‐C and HDL‐C levels.[10]
# Additionally, the plasma concentrations of obicetrapib were evaluated during and after the treatment period. Eligible participants had mild dyslipidemia defined as LDL‐C levels between 96–174 mg/dL, HDL‐C levels between 31 and 70 mg/dL, and triglyceride levels <400 mg/dL after a washout for those on lipid‐modifying therapies. Three hundred and sixty‐four participants (mean age: 64.7 years; 81.6% male; 98.1% White; mean body mass index [BMI]: 26.0 kg/m^2) were enrolled at 17 clinical research sites in the Netherlands and Denmark and randomized in a […] ratio to one of nine treatment groups: (1) placebo; (2) 1 mg obicetrapib; (3) 2.5 mg obicetrapib; (4) 5 mg obicetrapib; (5) 10 mg obicetrapib; (6) 10 mg atorvastatin; (7) 10 mg obicetrapib plus 20 mg atorvastatin; (8) 10 mg rosuvastatin; or (9) 10 mg obicetrapib plus 10 mg rosuvastatin. The participants were instructed to take their assigned treatment orally with food once daily for the 12‐week treatment period. After randomization, participants returned to the clinical research site for PK assessments at Weeks 8 and 12 (end of treatment). Participants also completed follow‐up visits two and eight weeks after the end of treatment (Weeks 14 and 20) for final safety and PK assessments. Of the 364 participants randomized, 337 (92.6%) completed the trial and were included in the primary analysis. The PK population (n = 242) included all randomized participants who received at least one dose of obicetrapib and had at least one valid plasma drug concentration data assessment; 227 (93.8%) of the participants in the PK population were included in the 8‐week post‐end of treatment PK analysis (TA‐8995‐03 CSR, NewAmsterdam Pharma).
# [2] = TA‐8995‐203 Phase II trial in Japanese participants, plasma concentrations of obicetrapib; assay type: in vivo, humans; settings: for Mean (SD) Plasma Level / concentration at 8 weeks: Week 8 (EOT), Japanese participants; for % Change in Plasma Level: Week 8 to Week 12, mean (SD); for concentration at 8 weeks / concentration at 12 weeks: both sexes, human, plasma, oral, read-out: Mean (SD) Plasma Level; for concentration at 12 weeks: Week 12, four weeks after the end of treatment
# Experimental: as §1
# This Phase II trial (NCT05421078) was designed to evaluate the efficacy, safety, and tolerability of obicetrapib as an adjunct to stable statin therapy in Japanese participants with LDL‐C >70 mg/dL, or non‐HDL‐C >100 mg/dL, and triglyceride levels <400 mg/dL.[13] Eligible participants were receiving either atorvastatin 10 or 20 mg or rosuvastatin 5 or 10 mg for at least 8 weeks prior to screening and continued statin therapy throughout the treatment period. One hundred two participants (mean age: 64.8 years; 71.6% male; mean BMI: 25.6 kg/m^2) were enrolled at nine clinical research sites in Japan and randomized to one of four treatment groups in a 1:1:1:1 ratio: 1) placebo; 2) 2.5 mg obicetrapib; 3) 5 mg obicetrapib; or 4) 10 mg obicetrapib.
# The participants were instructed to take their assigned treatment orally once daily at approximately the same time each morning for the 8‐week treatment period. After randomization, participants returned to the clinical research site during Weeks 2, 4, and 8 (end of treatment) for PK assessments. Participants also completed a follow‐up visit 4 weeks after the end of treatment (Week 12) for a final PK assessment. All of the participants who were randomized completed the treatment and were included in the primary analysis. The PK population included all randomized participants in the mITT population assigned to the three obicetrapib dose groups who had sufficient blood samples collected for valid estimation of PK parameters; 76 (100%) participants in the PK population were included in the 4‐week post‐end of treatment PK analysis (TA‐8995‐203 CSR, NewAmsterdam Pharma).
# [3] = Obicetrapib 10 mg + atorvastatin 20 mg
# [4] = Obicetrapib 10 mg + rosuvastatin 10 mg
# [5] = Obicetrapib 2.5 mg + stable statin therapy
# [6] = Obicetrapib 5 mg + stable statin therapy
# [7] = Obicetrapib 10 mg + stable statin therapy
smiles,measurement,setting,value
CCOC(=O)N1c2ccc(C(F)(F)F)cc2C(N(Cc2cc(C(F)(F)F)cc(C(F)(F)F)c2)c2ncc(OCCCC(=O)O)cn2)CC1CC (stereo not drawn) [Obicetrapib],% Change in Plasma Level,[1]; Obicetrapib 5 mg,−97.8 (0.8) %
same,Mean (SD) Plasma Level,"[1]; Obicetrapib 10 mg + atorvastatin 20 mg, Week 20, eight weeks after the end of treatment",10.8 (5.9) ng/mL
same,% Change in Plasma Level,[1]; [3],−97.4 (1.0) %
same,% Change in Plasma Level,[1]; [4],−97.3 (1.3) %
same,% Change in Plasma Level,[1]; Obicetrapib 10 mg,−97.7 (0.7) %
same,concentration at 12 weeks,"[1]; 5 mg, Obicetrapib 5 mg once daily",258 ng/mL
same,concentration at 20 weeks,"[1]; 5 mg, Obicetrapib 5 mg, Week 20, eight weeks after the end of treatment",5.9 ng/mL
same,concentration at 12 weeks,"[1]; 10 mg, Obicetrapib 10 mg once daily",408 ng/mL
same,concentration at 20 weeks,"[1]; 10 mg, Obicetrapib 10 mg, Week 20, eight weeks after the end of treatment",9.8 ng/mL
same,concentration at 12 weeks,[1]; [3],404 ng/mL
same,concentration at 12 weeks,[1]; [4],402 ng/mL
same,concentration at 20 weeks,"[1]; Obicetrapib 10 mg + rosuvastatin 10 mg, Week 20, eight weeks after the end of treatment",11.3 ng/mL
same,decrease of plasma levels,"[1]; eight weeks after the last dose (Week 20), all treatment groups",approximately 97%
same,Mean (SD) Plasma Level,[2]; [5],194.5 (42.7) ng/mL
same,% Change in Plasma Level,[2]; [5],−93.4 (2.6) %
same,% Change in Plasma Level,"[2]; Obicetrapib 2.5 mg + stable statin therapy, listed as obicetrapib",−93.4%
same,% Change in Plasma Level,[2]; [6],−93.5 (3.4) %
same,% Change in Plasma Level,"[2]; Obicetrapib 5 mg + stable statin therapy, listed as obicetrapib",−93.5%
same,Mean (SD) Plasma Level,[2]; [7],506.3 (237.5) ng/mL
same,% Change in Plasma Level,[2]; [7],−95.2 (2.3) %
same,% Change in Plasma Level,"[2]; Obicetrapib 10 mg + stable statin therapy, listed as obicetrapib",−95.2%
same,concentration at 8 weeks,"[2]; 2.5 mg, Obicetrapib 2.5 mg + stable statin therapy",194 ng/mL
same,concentration at 8 weeks,"[2]; 10 mg, Obicetrapib 10 mg + stable statin therapy",506 ng/mL
same,concentration at 12 weeks,[2]; [5],13.2 ng/mL
same,concentration at 8 weeks,[2]; [6],362 ng/mL
same,concentration at 12 weeks,[2]; [6],24.6 ng/mL
same,concentration at 12 weeks,[2]; [7],27.6 ng/mL
